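Grown in 96-well plates, cells were treated for 48 hours with each compound at five concentrations. Insufficient inhibition: endpoint recorded as highest concentration tested. TGI marks complete inhibition of growth.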
What was measured:
Assay in all cases: DTP human tumour cell line panel, 48 h
OVCAR-3 ovarian = system: OVCAR-3 ovarian
OVCAR-8 ovarian = system: OVCAR-8 ovarian
SF-268 CNS = system: SF-268 CNS
PC-3 prostate = system: PC-3 prostate
HOP-62 NSCLC = system: HOP-62 NSCLC
HCT-116 colon = system: HCT-116 colon
SK-MEL-5 melanoma = system: SK-MEL-5 melanoma
K-562 leukemia = system: K-562 leukemia
HS 578T breast = system: HS 578T breast
SF-539 CNS = system: SF-539 CNS
CAKI-1 renal = system: CAKI-1 renal
MDA-MB-435 = system: MDA-MB-435
UACC-62 melanoma = system: UACC-62 melanoma
HT29 colon = system: HT29 colon
HCT-15 colon = system: HCT-15 colon
SW-620 colon = system: SW-620 colon
SF-295 CNS = system: SF-295 CNS
A549 NSCLC = system: A549 NSCLC

Structure (SMILES)	TGI (OVCAR-3 ovarian)	TGI (OVCAR-8 ovarian)	TGI (SF-268 CNS)	TGI (PC-3 prostate)	TGI (HOP-62 NSCLC)	TGI (HCT-116 colon)	TGI (SK-MEL-5 melanoma)	TGI (K-562 leukemia)	TGI (HS 578T breast)	TGI (SF-539 CNS)	TGI (CAKI-1 renal)	TGI (MDA-MB-435)	TGI (UACC-62 melanoma)	TGI (HT29 colon)	TGI (HCT-15 colon)	TGI (SW-620 colon)	TGI (SF-295 CNS)	TGI (A549 NSCLC)
COc1ccc(-n2c(=O)n(C)c(=O)n2-c2c(C)c(C)c(C)c(C)c2C)cc1	> 100 µM	> 100 µM	> 100 µM	> 100 µM	> 100 µM	> 100 µM	> 100 µM	> 100 µM	> 100 µM	> 100 µM	> 100 µM	> 100 µM	> 100 µM	> 100 µM	> 100 µM	> 100 µM	> 100 µM	> 100 µM
FC(F)(F)C1(C(F)(F)F)C2CCC3(CC(F)(F)C(F)(F)S3)C1C2 (configuration not stated)	35.9 µM	> 100 µM	> 100 µM	> 100 µM	> 100 µM	42.5 µM	> 100 µM	> 100 µM	> 100 µM	> 100 µM	> 100 µM	> 100 µM	> 100 µM	> 100 µM	> 100 µM	> 100 µM	> 100 µM	> 100 µM
CC(OCc1ccccc1)C(NC(=O)C1CSSCC(NC(=O)C(Cc2ccccc2)NC(=O)OCc2ccccc2)C(=O)NC(Cc2ccccc2)C(=O)NC(Cc2cn(C=O)c3ccccc23)C(=O)NC(CCCCNC(=O)OCc2ccccc2)C(=O)NC(C(C)OCc2ccccc2)C(=O)N1)C(N)=O (configuration not stated)	34 µM	> 100 µM	> 100 µM	> 52.4 µM	> 100 µM	98.7 µM	> 73.8 µM	> 100 µM	> 100 µM	> 100 µM	> 100 µM	> 100 µM	> 100 µM	> 100 µM	> 100 µM	> 54.5 µM	> 100 µM	> 100 µM
O=C(CCc1cccc(O)c1)NCCc1cccc(OCc2ccccc2)c1	26 µM	67.9 µM	43 µM	31.8 µM	30.6 µM	30.3 µM	29.7 µM	71.3 µM	40.3 µM	30.7 µM	> 72.2 µM	29.6 µM	28.4 µM	30.7 µM	49.3 µM	> 56.5 µM	32.9 µM	> 70.9 µM
CC1(C)C(=O)C2(C#N)CCC1C2 (configuration not stated)	> 100 µM	> 100 µM	> 100 µM	> 100 µM	> 100 µM	> 100 µM	> 100 µM	> 100 µM	> 100 µM	> 100 µM	> 100 µM	> 100 µM	> 100 µM	> 100 µM	> 100 µM	> 100 µM	> 100 µM	> 100 µM
COC(=O)c1ccc(NCc2cc(O)ccc2O)cc1O	15.2 µM	19.8 µM	21.8 µM	> 32.3 µM	24.4 µM	36.3 µM	26.4 µM	> 79.3 µM	> 68.1 µM	6.31 µM	17.7 µM	23.2 µM	34 µM	34.4 µM	26.5 µM	19.9 µM	27.2 µM	30.4 µM
Oc1[nH]c2ccccc2c1N=NC(=S)N1CCCC1	17 µM	13.6 µM	> 58.3 µM	57.8 µM	26.2 µM	21.5 µM	8.5 µM	> 42.7 µM	> 72.9 µM	10.7 µM	10.8 µM	29.5 µM	18.2 µM	> 53.5 µM	4.29 µM	52.7 µM	17.1 µM	13.6 µM
COc1ccc2c(c1)c1c3c(ccc4ncn2c43)N(CCN(C)C)CCN=1	2.4 µM	1.56 µM	4.24 µM	1.62 µM	1.73 µM	1.52 µM	2.31 µM	0.705 µM	3.16 µM	1.1 µM	9.13 µM	1.76 µM	1.78 µM	1.58 µM	1.31 µM	2.13 µM	1.62 µM	2.04 µM
Cc1cc(=O)[nH]c2c3c(ccc12)OC(C)(C)C=C3	> 27.7 µM	> 100 µM	> 100 µM	> 100 µM	> 100 µM	> 50.1 µM	> 100 µM	> 100 µM	32.8 µM	> 23.8 µM	> 100 µM	4.9 µM	> 100 µM	> 56.4 µM	> 100 µM	> 100 µM	> 80.4 µM	> 100 µM
